We go through three compounds from patent publication US10729723B2, “Method for inducing cell reprogramming, and method for producing pluripotent cells” (NATIONAL UNIVERSITY CORPORATION KUMAMOTO UNIVERSITY, priority 2014, dated 2020).

The subject of series [1] is HDF cells. The series can be described thus: influence of endocytosis inhibitor on cell-cluster formation by Lactobacillus 70S ribosome fraction. The series is classed as cell-based, Human. The conditions noted are these: 70S ribosome fraction 0.5 μg/50 μl/well, HDF cells 20,000 cells, cultured 2 days. The method, then: (§1) In the presence of an endocytosis inhibitor shown in the following Table, the cell-cluster forming ability was examined using the Lactobacillus 70S ribosome fraction prepared in Example 6. The 70S ribosome fraction was placed into a 96-well plate (0.5 μg/50 μl/well), HDF cells (20,000 cells/100 μl) were added, and each inhibitor (50 μl) was added. The cells were cultured in a CO2 incubator for 2 days, and the number of the formed cell-clusters was measured. The inhibitor was used with the concentration shown in Table being the standard concentration (concentration “5” in FIG. 9). Accordingly, for example, in the case of CP, the concentration “5” is 10 μM, and the concentration “10” is 20 μM. In addition, the MTT assay (measurement of cell death by colorimetric method) was conducted.

Series [2] relates to HDF cells. The series can be described thus: MTT assay (measurement of cell death by colorimetric method). The series is classed as cell-based. The conditions noted are these: HDF cells with 70S ribosome fraction, 2 days. The method, then: as §1

`CN(C)CCCN1c2ccccc2Sc2ccc(Cl)cc21` [CP, Chlorpromazine]: the “number of the formed cell-clusters in the presence of inhibitor” value (from here on “number … in the presence of inhibitor”) in the series on HDF cells [1] was “decreased”.

For `C[C@@H]1[C@H](O)[C@@H](C)/C=C/C=C/CC/C=C/C=C/C=C/C=C/C(O[C@H]2O[C@H](C)[C@@H](O)[C@H](N)[C@@H]2O)CC2O[C@](O)(CC(O)C(O)CCC(O)CC(O)CC(O)CC(=O)O[C@H]1C)CC(O)C2C(=O)O` (stereo partly shown) [NY, Nystatin], the “number … in the presence of inhibitor” value in the series with HDF cells [1] is on record as “decreased”. Moreover, the “toxicity of inhibitor, considered cause of decreased cell-cluster number (MTT assay, cell survival ratio)” value with HDF cells [2] is “toxicity”.

For Methyl-β-cyclodextrin [MC], in the series on HDF cells [1], the “number … in the presence of inhibitor” value is on record as “increased concentration-dependently”.
